Assay results from article PMC10648875 (Antimicrobial Agents and Chemotherapy, 2023).
In brackets after ≈: the same amount, converted by molar mass. Several values for one entry are separate records, joined by “and”; a condition that tells them apart may be missing. Equal entries are not always repeated. Where two headings read alike, the source gives them in different places.

How the values were obtained:
[1] = system: Escherichia coli NCTC 13353 (ECM7514), CTX-M-15; assay: MIC, reference strain; format: cell-based; conditions: for MIC: Escherichia coli, NCTC13353, CTX-M-15, BLI at the fixed concentration in brackets, read-out: MIC
Description: (§1) Other BL/BLI combinations were tested at their recommended BLI concentrations. MIC values for the partner antibiotics and BLIs alone were also determined (Table 2; Table S1). All investigational and marketed BLIs enhanced the potency of antibiotics according to their spectrum of inhibition. MIC values against CLSI-approved QC strains were within acceptable ranges for drugs and combinations tested (Table 3).
(§2) Isolates were tested for antimicrobial susceptibility using the broth microdilution methodology per CLSI M07 (2018) guidelines ([40]). JMI Laboratories produced frozen-form 96-well panels with cation-adjusted Mueller-Hinton broth as the testing medium. Current CLSI quality assurance practices were followed when performing the susceptibility tests. MIC values were validated by concurrently testing the following CLSI-recommended ([27]) QC reference strains: E. coli NCTC 13353 (CTX-M-15), Klebsiella pneumoniae ATCC BAA-2814 (KPC-3), Klebsiella pneumoniae ATCC BAA-1705 (KPC-2), and K. pneumoniae ATCC 700603 (SHV-18). The inoculum density during susceptibility testing was monitored by bacterial colony counts. Where applicable, QC ranges for tested reference strains were those approved or published by the CLSI ([27]). Meropenem was purchased from Carbosynth; ceftolozane was synthesized at Acme Bioscience, Palo Alto, CA, USA; all other antibiotics were from Sigma Aldrich. Xeruborbactam was synthesized at Qpex Biopharma, San Diego, CA, USA. Avibactam was purchased from eNovation, Chemicals LLC, Bridgewater, NJ, USA. Vaborbactam was synthesized at The Medicines Company, San Diego, CA. Relebactam, taniborbactam, and relebactam were synthesized at Acme Bioscience.

[2] = system: E. coli CDC 0069 (EC1106), NDM-1; assay: MIC, reference strain; format: cell-based; conditions: Escherichia coli, BLI at the fixed concentration in brackets, read-out: MIC
Description: as §1
as §2, with “([27]).” for “([27]). Meropenem was purchased from Carbosynth; ceftolozane was synthesized at Acme Bioscience, Palo Alto, CA, USA; all other antibiotics were from Sigma Aldrich. Xeruborbactam was synthesized at Qpex Biopharma, San Diego, CA, USA. Avibactam was purchased from eNovation, Chemicals LLC, Bridgewater, NJ, USA. Vaborbactam was synthesized at The Medicines Company, San Diego, CA. Relebactam, taniborbactam, and relebactam were synthesized at Acme Bioscience.”

[3] = system: K. pneumoniae ATCC BAA-1705 (KPM1123), KPC-2; assay: MIC, reference strain; format: cell-based; conditions: for MIC: Klebsiella pneumoniae, ATCCBAA1705, KPC-2, BLI at the fixed concentration in brackets, read-out: MIC; for MIC (number of observations): Table S1, repeated QC testing
Description: as §1
as §2, with “([27]).” for “([27]). Meropenem was purchased from Carbosynth; ceftolozane was synthesized at Acme Bioscience, Palo Alto, CA, USA; all other antibiotics were from Sigma Aldrich. Xeruborbactam was synthesized at Qpex Biopharma, San Diego, CA, USA. Avibactam was purchased from eNovation, Chemicals LLC, Bridgewater, NJ, USA. Vaborbactam was synthesized at The Medicines Company, San Diego, CA. Relebactam, taniborbactam, and relebactam were synthesized at Acme Bioscience.”

[4] = system: K. pneumoniae ATCC BAA-2814 (KP1074), KPC-3; assay: MIC, reference strain; format: cell-based; conditions: for MIC: Klebsiella pneumoniae, ATCCBAA2814, KPC-3, BLI at the fixed concentration in brackets, read-out: MIC; for MIC (number of observations): Table S1, repeated QC testing
Description: as §1
as §2, with “([27]).” for “([27]). Meropenem was purchased from Carbosynth; ceftolozane was synthesized at Acme Bioscience, Palo Alto, CA, USA; all other antibiotics were from Sigma Aldrich. Xeruborbactam was synthesized at Qpex Biopharma, San Diego, CA, USA. Avibactam was purchased from eNovation, Chemicals LLC, Bridgewater, NJ, USA. Vaborbactam was synthesized at The Medicines Company, San Diego, CA. Relebactam, taniborbactam, and relebactam were synthesized at Acme Bioscience.”

[5] = system: K. pneumoniae CDC 0135 (KP1291), VIM-1; assay: MIC, reference strain; format: cell-based; conditions: Klebsiella pneumoniae, BLI at the fixed concentration in brackets, read-out: MIC
Description: as §1
as §2, with “([27]).” for “([27]). Meropenem was purchased from Carbosynth; ceftolozane was synthesized at Acme Bioscience, Palo Alto, CA, USA; all other antibiotics were from Sigma Aldrich. Xeruborbactam was synthesized at Qpex Biopharma, San Diego, CA, USA. Avibactam was purchased from eNovation, Chemicals LLC, Bridgewater, NJ, USA. Vaborbactam was synthesized at The Medicines Company, San Diego, CA. Relebactam, taniborbactam, and relebactam were synthesized at Acme Bioscience.”

[6] = system: Klebsiella pneumoniae ATCC 700603 (KPM2881), SHV-18; assay: MIC, reference strain; format: cell-based; conditions: for MIC: Klebsiella pneumoniae, ATCC700603, SHV-18, BLI at the fixed concentration in brackets, read-out: MIC
Description: as §1
as §2, with “([27]).” for “([27]). Meropenem was purchased from Carbosynth; ceftolozane was synthesized at Acme Bioscience, Palo Alto, CA, USA; all other antibiotics were from Sigma Aldrich. Xeruborbactam was synthesized at Qpex Biopharma, San Diego, CA, USA. Avibactam was purchased from eNovation, Chemicals LLC, Bridgewater, NJ, USA. Vaborbactam was synthesized at The Medicines Company, San Diego, CA. Relebactam, taniborbactam, and relebactam were synthesized at Acme Bioscience.”

[7] = system: P. aeruginosa BAA-3197 (PA5257), KPC-2; assay: MIC, reference strain; format: cell-based; conditions: for MIC: Pseudomonas aeruginosa, BAA3197, KPC-2, BLI at the fixed concentration in brackets, read-out: MIC
[8] = system: surveillance isolates of carbapenem-resistant strains of Enterobacterales; assay: MIC testing of SENTRY surveillance CRE isolates (Table 4, Table S4); format: cell-based; conditions: for % Inhibited: at ≤8 µg/mL β-lactam (IMP/REL ≤1/4, MEM/VAB ≤4/8 (≤8/8) µg/mL), footnote b
VIM-1 (lysate of KP1015) = molecular target: T1, VIM-1 (lysate of KP1015) (Pseudomonas aeruginosa, UniProt A0A0F7KYQ8); assay: IC50 of β-lactamase inhibition (imipenem cleavage) in cell lysates; format: biochemical, K. pneumoniae
T1 construct: endogenous in cells; host or cells: K. pneumoniae KP1015

PAM4135 producing KPC-2 = assay: MIC, engineered isogenic strain; format: cell-based, P. aeruginosa; conditions: KPC-2, class A; BLIs at fixed 4 µg/mL
PAM4842 producing PER-2 = assay: MIC, engineered isogenic strain; format: cell-based, P. aeruginosa; conditions: PER-2, class A; BLIs at fixed 4 µg/mL
PAM4907 producing PER-4 = assay: MIC, engineered isogenic strain; format: cell-based, P. aeruginosa; conditions: PER-4, class A; BLIs at fixed 4 µg/mL
PAM4908 producing VEB-1 = assay: MIC, engineered isogenic strain; format: cell-based, P. aeruginosa; conditions: VEB-1, class A; BLIs at fixed 4 µg/mL
PAM4846 producing OXA-9 = assay: MIC, engineered isogenic strain; format: cell-based, P. aeruginosa; conditions: OXA-9, class D; BLIs at fixed 4 µg/mL
PAM4917 producing NDM-7 = assay: MIC, engineered isogenic strain; format: cell-based, P. aeruginosa; conditions: NDM-7, class B; BLIs at fixed 4 µg/mL
PAM4883 producing GIM-1 = assay: MIC, engineered isogenic strain; format: cell-based, P. aeruginosa; conditions: GIM-1, class B; BLIs at fixed 4 µg/mL
PAM4885 producing SPM-1 = assay: MIC, engineered isogenic strain; format: cell-based, P. aeruginosa; conditions: SPM-1, class B; BLIs at fixed 4 µg/mL

O=C(O)c1c(F)ccc2c1OB(O)[C@@H]1C[C@H]21 [Xeruborbactam, xeruborbactam]
MIC [1]: 8 µg/mL
MIC (number of observations) ([1]; Table S1, repeated QC testing): 4 (1) - 8 (8) - 16 (2) µg/ml
MIC [2]: 16 µg/mL
MIC [3]: 16 µg/mL
MIC (number of observations) [3]: 8 (2)-16 (44)-32 (2) µg/ml
MIC [4]: 32 µg/mL
MIC (number of observations) [4]: 16 (20)-32 (28) µg/ml
MIC [5]: 16 µg/mL
MIC [6]: 16 µg/mL
MIC (number of observations) ([6]; Table S1, repeated QC testing): 8 (7)-16 (4) µg/ml
MIC [7]: > 64 µg/mL
MIC (number of observations) ([7]; Table S1, repeated QC testing): 64 (1)- >128 (13) µg/ml
% of isolates with xeruborbactam MIC of ≤8 µg/mL [8]: 13.3%
MIC50 ([8]; read-out: MIC50 for xeruborbactam alone, range over all the subsets of isolates): 16 to 32 µg/mL
% of isolates without significant growth inhibition at 4 µg/mL ([8]; xeruborbactam alone at 4 µg/mL): > 99%
IC50 (VIM-1 (lysate of KP1015)): 250 ± 20 nM

C[C@@H](O)[C@H]1C(=O)N2C(C(=O)O)=C(S[C@@H]3CN[C@H](C(=O)N(C)C)C3)[C@H](C)[C@H]12 [MEM, meropenem]
MIC (PAM4135 producing KPC-2): 32 µg/mL (≈ 83.4 µM)
MIC (PAM4842 producing PER-2): 0.125 µg/mL (≈ 0.326 µM)
MIC (PAM4907 producing PER-4): 0.125 µg/mL (≈ 0.326 µM)
MIC (PAM4908 producing VEB-1): 0.5 µg/mL (≈ 1.3 µM)
MIC (PAM4846 producing OXA-9): 0.25 µg/mL (≈ 0.652 µM)
MIC (PAM4917 producing NDM-7): 32 µg/mL (≈ 83.4 µM)
MIC (PAM4883 producing GIM-1): 32 µg/mL (≈ 83.4 µM)
MIC (PAM4885 producing SPM-1): 32 µg/mL (≈ 83.4 µM)
MIC [1]: ≤ 0.03 µg/mL
MIC [2]: 32 µg/mL
MIC [3]: 32 µg/mL
MIC (number of observations) [3]: 8 (2)-16 (16)-32 (28) µg/ml
MIC [4]: > 64 µg/mL
MIC (number of observations) [4]: > 32 µg/mL
MIC [5]: 8 µg/mL
MIC [6]: ≤ 0.03 µg/mL
MIC [7]: > 64 µg/mL
MIC90 [8]: 16 and > 32
% Inhibited ([8]; All surveillance CRE): 30.20%
MIC50 ([8]; All surveillance CRE, read-out: MIC50): 32 µg/mL (≈ 83.4 µM)
MIC90 ([8]; All surveillance CRE, read-out: MIC90): > 32 µg/mL
% Inhibited ([8]; KPC subset): 29.50%
MIC50 ([8]; KPC subset, read-out: MIC50): 32 µg/mL (≈ 83.4 µM)
MIC90 ([8]; KPC subset, read-out: MIC90): > 32 µg/mL
% Inhibited ([8]; MBL subset): 9.00%
MIC50 ([8]; MBL subset, read-out: MIC50): > 32 µg/mL
MIC90 ([8]; MBL subset, read-out: MIC90): > 32 µg/mL
% Inhibited ([8]; NDM subset): 6.30%
MIC50 ([8]; NDM subset, read-out: MIC50): > 32 µg/mL
MIC90 ([8]; NDM subset, read-out: MIC90): > 32 µg/mL
% Inhibited ([8]; No MBL subset): 39.40%
MIC50 ([8]; No MBL subset, read-out: MIC50): 16 µg/mL (≈ 41.7 µM)
MIC90 ([8]; No MBL subset, read-out: MIC90): > 32 µg/mL
% Inhibited ([8]; Non-CP CRE subset): 81.80%
MIC50 ([8]; Non-CP CRE subset, read-out: MIC50): 8 µg/mL (≈ 20.9 µM)
MIC90 ([8]; Non-CP CRE subset, read-out: MIC90): 16 µg/mL (≈ 41.7 µM)
% Inhibited ([8]; OXA-48 subset): 37.20%
MIC50 ([8]; OXA-48 subset, read-out: MIC50): 32 µg/mL (≈ 83.4 µM)
MIC90 ([8]; OXA-48 subset, read-out: MIC90): > 32 µg/mL
% Inhibited ([8]; VIM subset): 35.00%
MIC50 ([8]; VIM subset, read-out: MIC50): 16 µg/mL (≈ 41.7 µM)
MIC90 ([8]; VIM subset, read-out: MIC90): > 32 µg/mL
